Legend:
human MER (528-end) = molecular target: T1, human MER (528-end) (Homo sapiens, UniProt Q12866); assay: HTRF kinase activity biochemical assay, MER; settings: recombinant kinase, 10 uM ATP, 30 minutes pre-incubation; read-out: HTRF MERTK IC50;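 also: phosphorylation of a biotin-tagged tyrosine kinase substrate detected by Eu3+-cryptate antibody and streptavidin-XL665 time-resolved fluorescence, read after 1 h at room temperature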
T1 construct: human MER (528-end); purchased Carnabio, Japan
T1 sequence (Q12866 528-999 limits assumed): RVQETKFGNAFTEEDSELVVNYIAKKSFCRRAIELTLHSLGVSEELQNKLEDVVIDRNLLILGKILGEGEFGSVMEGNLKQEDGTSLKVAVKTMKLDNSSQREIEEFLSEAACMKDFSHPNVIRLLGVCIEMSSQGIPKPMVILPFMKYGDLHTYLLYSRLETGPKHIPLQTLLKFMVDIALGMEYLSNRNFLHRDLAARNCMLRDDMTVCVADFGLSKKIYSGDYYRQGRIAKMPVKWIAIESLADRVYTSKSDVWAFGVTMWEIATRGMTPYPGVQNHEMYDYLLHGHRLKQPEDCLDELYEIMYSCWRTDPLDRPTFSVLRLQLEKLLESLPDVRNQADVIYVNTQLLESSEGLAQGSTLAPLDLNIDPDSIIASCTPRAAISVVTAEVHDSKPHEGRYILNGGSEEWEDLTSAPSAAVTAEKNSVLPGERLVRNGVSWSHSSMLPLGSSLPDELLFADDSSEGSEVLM

human AXL (473-end) = molecular target: T2, human AXL (473-end) (Homo sapiens, UniProt P30530); assay: HTRF kinase activity biochemical assay, AXL; settings: recombinant kinase, 10 uM ATP, 30 minutes pre-incubation; read-out: HTRF AXL IC50;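 also: phosphorylation of a biotinylated tyrosine kinase substrate detected via Eu3+-cryptate anti-TK antibody and streptavidin-XL665, fluorescence read after a 1 h incubation at room temperature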
T2 construct: human AXL (473-end); purchased SignalChem, Canada
T2 sequence (P30530 473-894 limits assumed): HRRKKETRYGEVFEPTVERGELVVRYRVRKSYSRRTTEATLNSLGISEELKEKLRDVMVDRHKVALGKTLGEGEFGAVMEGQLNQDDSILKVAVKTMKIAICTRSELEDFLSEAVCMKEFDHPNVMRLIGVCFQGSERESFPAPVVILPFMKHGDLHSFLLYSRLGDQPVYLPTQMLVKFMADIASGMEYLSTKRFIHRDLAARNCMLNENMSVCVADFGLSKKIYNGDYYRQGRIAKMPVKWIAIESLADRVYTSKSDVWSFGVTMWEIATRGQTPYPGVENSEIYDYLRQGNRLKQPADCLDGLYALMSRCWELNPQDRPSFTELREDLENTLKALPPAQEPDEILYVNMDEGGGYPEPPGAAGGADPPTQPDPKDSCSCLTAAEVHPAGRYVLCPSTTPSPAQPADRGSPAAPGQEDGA

TYRO3 (455-end) = molecular target: T3, TYRO3 (455-end) (Homo sapiens, UniProt Q06418); assay: HTRF kinase activity biochemical assay, TYRO3; settings: recombinant kinase, 10 uM ATP, 30 minutes pre-incubation; read-out: HTRF TYRO IC50;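 also: biotinylated tyrosine kinase substrate phosphorylation detected via streptavidin-XL665 and Eu3+-cryptate anti-phospho antibody time-resolved fluorescence, read after 1 h detection at room temperature, 384-well format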
T3 construct: TYRO3 (455-end); purchased SignalChem, Canada
T3 sequence (Q06418 455-890 limits assumed): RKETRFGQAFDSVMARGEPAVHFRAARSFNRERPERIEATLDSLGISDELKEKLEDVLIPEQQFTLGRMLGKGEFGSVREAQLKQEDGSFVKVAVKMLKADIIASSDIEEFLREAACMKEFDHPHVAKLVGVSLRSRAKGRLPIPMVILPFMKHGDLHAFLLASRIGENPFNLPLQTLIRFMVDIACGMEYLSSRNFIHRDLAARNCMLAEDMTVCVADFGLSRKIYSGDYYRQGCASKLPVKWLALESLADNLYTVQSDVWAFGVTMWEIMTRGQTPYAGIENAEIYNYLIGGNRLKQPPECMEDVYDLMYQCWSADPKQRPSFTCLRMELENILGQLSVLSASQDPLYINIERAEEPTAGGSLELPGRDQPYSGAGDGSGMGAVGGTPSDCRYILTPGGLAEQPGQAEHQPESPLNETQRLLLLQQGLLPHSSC

Structure (SMILES) | IC50 (human MER (528-end)) | IC50 (human AXL (473-end)) | IC50 (TYRO3 (455-end))
COCCn1cc(Nc2ncc(C3CN(c4nc5ccccc5o4)C3)nc2C(N)=O)cn1 [Example 29, 6-[1-(1,3-benzoxazol-2-yl)azetidin-3-yl]-3-{[1-(2-methoxyethyl)-1H-pyrazol-4-yl]amino}pyrazine-2-carboxamide] | 5 nM | 10 nM | 340 nM
CC(C)(O)CCOc1ccc2nc(N3CC(c4cnc(Nc5cn[nH]c5)c(C(N)=O)n4)C3)oc2c1 [Example 96B, 6-{1-[6-(3-hydroxy-3-methylbutoxy)-1,3-benzoxazol-2-yl]azetidin-3-yl}-3-[(1H-pyrazol-4-yl)amino]pyrazine-2-carboxamide] | 2 nM | 7 nM | 670 nM
Cn1cc(Nc2ncc(C3CN(c4nc5ccc(OCC(=O)N6CCC6)cc5o4)C3)nc2C(N)=O)cn1 [Example 73, 6-(1-{6-[2-(azetidin-1-yl)-2-oxoethoxy]-1,3-benzoxazol-2-yl}azetidin-3-yl)-3-[(1-methyl-1H-pyrazol-4-yl)amino]pyrazine-2-carboxamide] | 2 nM | 9 nM | 1700 nM
Cn1cc(Nc2ncc(C3CN(c4nc5ccc(OCCC(C)(C)OC(=O)CNC(=O)OC(C)(C)C)cc5o4)C3)nc2C(N)=O)cn1 [Example 95A, 4-{[2-(3-f{6-carbamoyl-5-[(1-methyl-1H-pyrazol-4-yl)amino]pyrazin-2-yl}azetidin-1-yl)-1,3-benzoxazol-6-yl]oxy}-2-methylbutan-2-yl [(tert-butoxycarbonyl)amino]acetate] | < 1 nM | 3 nM | 460 nM
Cn1cnc(COc2ccc3nc(N4CC(c5cnc(Nc6cnn(C)c6)c(C(N)=O)n5)C4)oc3c2)c1 [Example 98, 6-(1-{6-[(1-methyl-1H-imidazol-4-yl)methoxy]-1,3-benzoxazol-2-yl}azetidin-3-yl)-3-[(1-methyl-1H-pyrazol-4-yl)amino]pyrazine-2-carboxamide] | 1.1 nM | 7 nM | 1280 nM
CN(C)C(=O)Cn1cc(Nc2ncc(C3CN(c4nc5ccccc5o4)C3)nc2C(N)=O)cn1 [Example 34, 6-[1-(1,3-benzoxazol-2-yl)azetidin-3-yl]-3-({1-[2-(dimethylamino)-2-oxoethyl]-1H-pyrazol-4-yl}amino)pyrazine-2-carboxamide] | 8 nM | 19 nM | 620 nM
Cn1cc(Nc2ncc(C3CN(c4nc5ccc(C(=O)N6CCC[C@@H]6CO)cc5o4)C3)nc2C(N)=O)cn1 [Example 59, 6-(1-{6-[(2R)-2-(hydroxymethyl)pyrrolidine-1-carbonyl]-1,3-benzoxazol-2-yl}azetidin-3-yl)-3-[(1-methyl-1H-pyrazol-4-yl)amino]pyrazine-2-carboxamide] | < 1 nM | 2 nM | 30 nM
NC(=O)c1nc(C2CN(c3nc4ccc(F)cc4o3)C2)cnc1Nc1cn[nH]c1 [Example 36C, 6-[1-(6-fluoro-1,3-benzoxazol-2-yl)azetidin-3-yl]-3-[(1H-pyrazol-4-yl)amino]pyrazine-2-carboxamide] | 1 nM | 3 nM | > 10000 nM
Cn1cc(Nc2ncc(C3CN(c4nc5ccc(CC(CO)CO)cc5o4)C3)nc2C(N)=O)cn1 [Example 25, 6-(1-{6-[3-hydroxy-2-(hydroxymethyl)propyl]-1,3-benzoxazol-2-yl}azetidin-3-yl)-3-[(1-methyl-1H-pyrazol-4-yl)amino]pyrazine-2-carboxamide] | 7 nM | 10 nM | 1100 nM
Cn1cc(Nc2ncc(C3CN(c4nc5ccc(-c6ccc(OCCO)cc6)cc5o4)C3)nc2C(N)=O)cn1 [Example 89, 6-(1-{6-[4-(2-hydroxyethoxy)phenyl]-1,3-benzoxazol-2-yl}azetidin-3-yl)-3-[(1-methyl-1H-pyrazol-4-yl)amino]pyrazine-2-carboxamide] | 1 nM | 6 nM | 260 nM
Cn1cc(Nc2ccc(C3CN(c4nc5ccc(OCC(C)(C)OC(=O)CN)cc5o4)C3)nc2C(N)=O)cn1 [Example 108, 1-{[2-(3-{6-carbamoyl-5-[(1-methyl-1H-pyrazol-4-yl)amino]pyridin-2-yl}azetidin-1-yl)-1,3-benzoxazol-6-yl]oxy}-2-methylpropan-2-yl glycinate] | < 1 nM | 4 nM | 880 nM
Cn1cc(Nc2ncc(C3CN(c4nc5ccc(-c6ccc(O)cc6)cc5o4)C3)nc2C(N)=O)cn1 [Example 88, 6-{1-[6-(4-hydroxyphenyl)-1,3-benzoxazol-2-yl]azetidin-3-yl}-3-[(1-methyl-1H-pyrazol-4-yl)amino]pyrazine-2-carboxamide] | < 1 nM | 3 nM | 51 nM
C=CCOP(=O)(OCC=C)OC(C)(C)CCOc1ccc2nc(N3CC(c4cnc(Nc5cnn(C)c5)c(C(N)=O)n4)C3)oc2c1 [Example 77A, 4-{[2-(3-f{6-carbamoyl-5-[(1-methyl-1H-pyrazol-4-yl)amino]pyrazin-2-yl}azetidin-1-yl)-1,3-benzoxazol-6-yl]oxy}-2-methylbutan-2-yl diprop-2-en-1-yl phosphate] | 2 nM | 6 nM | 250 nM

The next lines start with the values.

IC50 (human MER (528-end)) | IC50 (human AXL (473-end)) | IC50 (TYRO3 (455-end)) | Structure (SMILES)
3 nM | 9 nM | 9 nM | Cn1cc(Nc2ncc(C3CN(c4nc5ccc(C(=O)N6CCOCC6)cc5o4)C3)nc2C(N)=O)cn1 [Example 46, 3-[(1-methyl-1H-pyrazol-4-yl)amino]-6-{1-[6-(morpholine-4-carbonyl)-1,3-benzoxazol-2-yl]azetidin-3-yl}pyrazine-2-carboxamide]
1 nM | 3 nM | 1070 nM | Cn1cc(Nc2ncc(C3CN(c4nc5ccc(CC(=O)N6CCC[C@@H]6C(F)(F)F)cc5o4)C3)nc2C(N)=O)cn1 [Example 81, 3-[(1-methyl-1H-pyrazol-4-yl)amino]-6-[1-(6-{2-oxo-2-[(2R)-2-(trifluoromethyl)pyrrolidin-1-yl]ethyl}-1,3-benzoxazol-2-yl)azetidin-3-yl]pyrazine-2-carboxamide]
< 1 nM | 2 nM | 210 nM | Cn1cc(Nc2ncc(C3CN(c4nc5ccc(OCC6COC6)cc5o4)C3)nc2C(N)=O)cn1 [Example 41, 3-[(1-methyl-1H-pyrazol-4-yl)amino]-6-(1-{6-[(oxetan-3-yl)methoxy]-1,3-benzoxazol-2-yl}azetidin-3-yl)pyrazine-2-carboxamide]
2 nM | 6 nM | 270 nM | Cc1ccc2nc(N3CC(c4ccc(Nc5cnn(C)c5)c(C(N)=O)n4)C3)oc2c1 [Example 78, 6-[1-(6-methyl-1,3-benzoxazol-2-yl)azetidin-3-yl]-3-[(1-methyl-1H-pyrazol-4-yl)amino]pyridine-2-carboxamide]
1 nM | 4 nM | 120 nM | COCCOc1ccc(-c2ccc3nc(N4CC(c5cnc(Nc6cnn(C)c6)c(C(N)=O)n5)C4)oc3c2)cc1 [Example 100, 6-(1-{6-[4-(2-methoxyethoxy)phenyl]-1,3-benzoxazol-2-yl}azetidin-3-yl)-3-[(1-methyl-1H-pyrazol-4-yl)amino]pyrazine-2-carboxamide]
2 nM | 3 nM | 130 nM | Cn1cc(Nc2ncc(C3CN(c4nc5ccc(OCC#N)cc5o4)C3)nc2C(N)=O)cn1 [Example 24, 6-{1-[6-(cyanomethoxy)-1,3-benzoxazol-2-yl]azetidin-3-yl}-3-[(1-methyl-1H-pyrazol-4-yl)amino]pyrazine-2-carboxamide]
7 nM | 8 nM | 2310 nM | Cn1cc(Nc2ncc(C3CN(c4nc5ccc(OCC6(O)COC6)cc5o4)C3)nc2C(N)=O)cn1 [Example 57, 6-(1-{6-[(3-hydroxyoxetan-3-yl)methoxy]-1,3-benzoxazol-2-yl}azetidin-3-yl)-3-[(1-methyl-1H-pyrazol-4-yl)amino]pyrazine-2-carboxamide]

Source: patent US20260232658A1, “AZETIDINYL BENZOXAZOLE COMPOUNDS AND THEIR USE AS MER AND AXL INHIBITORS” (DONG-A ST CO., LTD., priority 2022, published 2026)
